Data from ChEMBL document CHEMBL1821596, “Isolation and structural identification of a direct-acting mutagen derived from N-nitroso-N-methylpentylamine and Fenton's reagent with copper ion” (Bioorg Med Chem, 2011).

Key:
Type in all cases: toxicity, organism-based
Conditions in all cases: salmonella enterica subsp. enterica serovar typhimurium
Salmonella typhimurium [1] = experiment: Mutagenic activity in Salmonella Typhimurium TA1535 at 100 uM after 2 hrs by plate-incorporating method
Salmonella typhimurium [2] = experiment: Mutagenic activity in Salmonella Typhimurium TA1535 at 100 uM after 2 hrs by plate-incorporating method in presence of Cu2+-H2O2
Salmonella typhimurium [3] = experiment: Mutagenic activity in Salmonella Typhimurium TA1535 at 100 uM after 2 hrs by plate-incorporating method in presence of H2O2
Salmonella typhimurium [4] = experiment: Mutagenic activity in Salmonella Typhimurium TA1535 at 100 uM after 2 hrs by plate-incorporating method in presence of Fe2+-H2O2
Salmonella typhimurium [5] = experiment: Mutagenic activity in Salmonella Typhimurium TA1535 at 100 uM after 2 hrs by plate-incorporating method in presence of Fe2+-Cu2+-H2O2 and nitric oxide
Salmonella typhimurium [6] = experiment: Mutagenic activity in Salmonella Typhimurium TA1535 at 100 uM after 2 hrs by plate-incorporating method in presence of Cu2+-Fe2+
Salmonella typhimurium [7] = experiment: Mutagenic activity in Salmonella Typhimurium TA1535 at 100 uM after 2 hrs by plate-incorporating method in presence of Fe2+-Cu2+-H2O2

CCC1([N+](=O)[O-])CCN=[N+]1[O-] (configuration not stated)
Activity (Salmonella typhimurium [1]): Toxic

CCCCCN(C)N=O
Activity (Salmonella typhimurium [2]): Toxic
Activity (Salmonella typhimurium [3]): Non-toxic
Activity (Salmonella typhimurium [4]): Non-toxic
Activity (Salmonella typhimurium [5]): Toxic
Activity (Salmonella typhimurium [6]): Non-toxic
Activity (Salmonella typhimurium [7]): Toxic
